Measured values reported in the kinase profiling compilation of Christmann-Franck et al. (2016).

How the values were obtained:
Experiment in all cases: KINOMEscan competition binding
Settings in all cases: compound 10.0 µM
SIK2 (human) = SIK2 (human) (UniProt Q9H0K1)
KDR (human) = KDR (human) (UniProt P35968)
[1] = target: JAK2 JH1 catalytic (human) (UniProt O60674)
FGFR1 (human) = FGFR1 (human) (UniProt P11362)
CSNK1G1 (human) = CSNK1G1 (human) (UniProt Q9HCP0)
PIK3CB (human) = PIK3CB (human) (UniProt P42338)
PLK2 (human) = PLK2 (human) (UniProt Q9NYY3)
[2] = test system: EGFR (human), P00533 [G719S]
NIM1 (human) = NIM1 (human) (UniProt Q8IY84)
RPS6KB1 (human) = RPS6KB1 (human) (UniProt P23443)
TIE1 (human) = TIE1 (human) (UniProt P35590)
ACVRL1 (human) = ACVRL1 (human) (UniProt P37023)
GSK3A (human) = GSK3A (human) (UniProt P49840)
EPHA5 (human) = EPHA5 (human) (UniProt P54756)
PRKD1 (human) = PRKD1 (human) (UniProt Q15139)
Sequence of PRKD1 (human) (Q15139 whole entry, looked up): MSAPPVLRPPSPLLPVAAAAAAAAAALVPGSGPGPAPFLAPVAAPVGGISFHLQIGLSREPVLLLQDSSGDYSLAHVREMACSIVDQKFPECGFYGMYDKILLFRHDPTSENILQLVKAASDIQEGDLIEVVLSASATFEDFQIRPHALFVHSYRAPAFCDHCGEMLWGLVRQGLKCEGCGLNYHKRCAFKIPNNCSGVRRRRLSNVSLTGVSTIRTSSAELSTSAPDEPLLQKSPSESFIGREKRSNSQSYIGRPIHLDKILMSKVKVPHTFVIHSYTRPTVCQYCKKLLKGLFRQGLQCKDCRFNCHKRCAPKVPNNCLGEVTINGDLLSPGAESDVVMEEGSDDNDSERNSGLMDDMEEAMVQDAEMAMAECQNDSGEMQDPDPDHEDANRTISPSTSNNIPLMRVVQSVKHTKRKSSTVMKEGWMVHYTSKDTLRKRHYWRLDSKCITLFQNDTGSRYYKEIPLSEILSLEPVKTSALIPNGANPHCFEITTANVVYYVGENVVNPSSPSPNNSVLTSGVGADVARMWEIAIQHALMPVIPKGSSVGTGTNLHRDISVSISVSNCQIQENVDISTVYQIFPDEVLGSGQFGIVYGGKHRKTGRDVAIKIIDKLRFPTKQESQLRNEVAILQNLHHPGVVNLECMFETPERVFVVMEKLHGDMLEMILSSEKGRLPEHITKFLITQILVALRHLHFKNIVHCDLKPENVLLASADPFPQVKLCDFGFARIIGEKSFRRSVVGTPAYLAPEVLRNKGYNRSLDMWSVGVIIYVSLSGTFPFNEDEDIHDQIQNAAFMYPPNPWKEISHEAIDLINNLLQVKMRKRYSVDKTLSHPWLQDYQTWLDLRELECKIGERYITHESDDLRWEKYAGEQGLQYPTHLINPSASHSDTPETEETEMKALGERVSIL

[3] = target: JAK1 JH2 pseudokinase (human) (UniProt P23458)
RPS6KA1 KD2 (human) = RPS6KA1 KD2 (human) (UniProt Q15418)
CDKL1 (human) = CDKL1 (human) (UniProt Q00532)
Sequence of CDKL1 (human) (Q00532 whole entry, looked up): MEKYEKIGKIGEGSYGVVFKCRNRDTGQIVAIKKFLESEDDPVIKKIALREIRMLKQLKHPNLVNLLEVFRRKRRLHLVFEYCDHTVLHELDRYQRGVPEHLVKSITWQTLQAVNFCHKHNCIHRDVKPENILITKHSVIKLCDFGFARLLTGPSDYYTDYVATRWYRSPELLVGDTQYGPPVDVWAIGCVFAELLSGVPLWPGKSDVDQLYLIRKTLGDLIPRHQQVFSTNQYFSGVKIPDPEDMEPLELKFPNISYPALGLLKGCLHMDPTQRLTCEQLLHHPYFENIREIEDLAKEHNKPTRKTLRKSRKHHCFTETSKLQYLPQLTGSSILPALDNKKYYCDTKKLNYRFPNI

AXL (human) = AXL (human) (UniProt P30530)
MAP2K5 (human) = MAP2K5 (human) (UniProt Q13163)
Sequence of MAP2K5 (human) (Q13163 whole entry, looked up): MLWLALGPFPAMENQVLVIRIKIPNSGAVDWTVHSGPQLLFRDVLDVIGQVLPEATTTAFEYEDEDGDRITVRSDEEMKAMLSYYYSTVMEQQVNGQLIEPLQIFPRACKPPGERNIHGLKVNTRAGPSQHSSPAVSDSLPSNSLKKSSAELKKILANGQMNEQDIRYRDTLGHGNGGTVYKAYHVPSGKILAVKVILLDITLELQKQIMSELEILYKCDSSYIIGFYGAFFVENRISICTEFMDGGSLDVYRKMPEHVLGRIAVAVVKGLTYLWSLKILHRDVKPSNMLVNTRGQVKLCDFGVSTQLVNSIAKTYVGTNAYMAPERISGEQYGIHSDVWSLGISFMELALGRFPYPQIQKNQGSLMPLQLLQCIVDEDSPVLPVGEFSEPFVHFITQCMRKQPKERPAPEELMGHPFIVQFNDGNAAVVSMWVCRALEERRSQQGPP

MINK1 (human) = MINK1 (human) (UniProt Q8N4C8)
[4] = test system: PIK3CA (human), P42336 [I800L]
PKN1 (human) = PKN1 (human) (UniProt Q16512)
PIP4K2B (human) = PIP4K2B (human) (UniProt P78356)
LYN (human) = LYN (human) (UniProt P07948)
ALK (human) = ALK (human) (UniProt Q9UM73)
CDK14 (human) = CDK14 (human) (UniProt O94921)
PLK4 (human) = PLK4 (human) (UniProt O00444)
FLT1 (human) = FLT1 (human) (UniProt P17948)
[5] = test system: EIF2AK4 KD2 (human), Q9P2K8 [S808G]
TNK2 (human) = TNK2 (human) (UniProt Q07912)
Sequence of TNK2 (human) (Q07912 whole entry, looked up): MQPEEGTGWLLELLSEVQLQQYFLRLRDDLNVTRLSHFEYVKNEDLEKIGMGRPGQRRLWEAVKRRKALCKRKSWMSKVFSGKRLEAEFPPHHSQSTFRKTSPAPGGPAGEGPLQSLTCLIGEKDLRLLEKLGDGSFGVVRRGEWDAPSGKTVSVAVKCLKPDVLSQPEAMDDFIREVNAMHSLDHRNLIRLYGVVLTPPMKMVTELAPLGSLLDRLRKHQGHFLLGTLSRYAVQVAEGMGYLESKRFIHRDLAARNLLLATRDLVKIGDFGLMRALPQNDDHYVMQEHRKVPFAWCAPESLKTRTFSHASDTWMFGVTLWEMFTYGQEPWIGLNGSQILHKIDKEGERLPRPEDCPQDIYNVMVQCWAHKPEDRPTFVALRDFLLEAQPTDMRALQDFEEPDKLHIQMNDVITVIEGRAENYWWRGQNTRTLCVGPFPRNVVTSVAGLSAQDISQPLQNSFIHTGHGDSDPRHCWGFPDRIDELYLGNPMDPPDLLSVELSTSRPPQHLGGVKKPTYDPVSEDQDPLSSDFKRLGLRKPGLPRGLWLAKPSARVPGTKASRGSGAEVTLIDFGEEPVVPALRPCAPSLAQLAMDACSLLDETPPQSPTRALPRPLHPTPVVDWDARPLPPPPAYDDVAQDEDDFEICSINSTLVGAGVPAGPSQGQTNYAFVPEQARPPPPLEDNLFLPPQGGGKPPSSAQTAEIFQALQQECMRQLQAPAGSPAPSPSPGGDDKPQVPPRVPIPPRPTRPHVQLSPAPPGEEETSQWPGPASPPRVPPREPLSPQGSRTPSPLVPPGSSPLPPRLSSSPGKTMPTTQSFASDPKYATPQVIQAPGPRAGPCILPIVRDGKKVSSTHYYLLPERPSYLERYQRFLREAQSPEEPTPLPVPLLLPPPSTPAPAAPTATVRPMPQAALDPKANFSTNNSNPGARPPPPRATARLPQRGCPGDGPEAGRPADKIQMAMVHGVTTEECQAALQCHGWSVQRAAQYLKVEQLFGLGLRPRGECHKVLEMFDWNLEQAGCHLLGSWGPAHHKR

DAPK2 (human) = DAPK2 (human) (UniProt Q9UIK4)
PRKCH (human) = PRKCH (human) (UniProt P24723)
TNK1 (human) = TNK1 (human) (UniProt Q13470)
MAP3K11 (human) = MAP3K11 (human) (UniProt Q16584)
PRKX (human) = PRKX (human) (UniProt P51817)
Sequence of PRKX (human) (P51817 whole entry, looked up): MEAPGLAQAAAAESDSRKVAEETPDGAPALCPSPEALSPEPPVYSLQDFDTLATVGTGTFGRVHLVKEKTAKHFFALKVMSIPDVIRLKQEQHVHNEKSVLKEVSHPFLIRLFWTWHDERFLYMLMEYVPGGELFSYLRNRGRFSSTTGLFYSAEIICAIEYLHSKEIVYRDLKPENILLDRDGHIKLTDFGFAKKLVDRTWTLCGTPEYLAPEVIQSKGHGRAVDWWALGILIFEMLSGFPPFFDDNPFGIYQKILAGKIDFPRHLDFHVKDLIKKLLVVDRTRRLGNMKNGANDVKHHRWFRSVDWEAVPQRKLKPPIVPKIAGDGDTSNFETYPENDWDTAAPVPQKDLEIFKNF

CSNK2A2 (human) = CSNK2A2 (human) (UniProt P19784)
CDK17 (human) = CDK17 (human) (UniProt Q00537)
MYO3A (human) = MYO3A (human) (UniProt Q8NEV4)
CDKL5 (human) = CDKL5 (human) (UniProt O76039)

Sequence of KDR (human) (P35968 whole entry, looked up): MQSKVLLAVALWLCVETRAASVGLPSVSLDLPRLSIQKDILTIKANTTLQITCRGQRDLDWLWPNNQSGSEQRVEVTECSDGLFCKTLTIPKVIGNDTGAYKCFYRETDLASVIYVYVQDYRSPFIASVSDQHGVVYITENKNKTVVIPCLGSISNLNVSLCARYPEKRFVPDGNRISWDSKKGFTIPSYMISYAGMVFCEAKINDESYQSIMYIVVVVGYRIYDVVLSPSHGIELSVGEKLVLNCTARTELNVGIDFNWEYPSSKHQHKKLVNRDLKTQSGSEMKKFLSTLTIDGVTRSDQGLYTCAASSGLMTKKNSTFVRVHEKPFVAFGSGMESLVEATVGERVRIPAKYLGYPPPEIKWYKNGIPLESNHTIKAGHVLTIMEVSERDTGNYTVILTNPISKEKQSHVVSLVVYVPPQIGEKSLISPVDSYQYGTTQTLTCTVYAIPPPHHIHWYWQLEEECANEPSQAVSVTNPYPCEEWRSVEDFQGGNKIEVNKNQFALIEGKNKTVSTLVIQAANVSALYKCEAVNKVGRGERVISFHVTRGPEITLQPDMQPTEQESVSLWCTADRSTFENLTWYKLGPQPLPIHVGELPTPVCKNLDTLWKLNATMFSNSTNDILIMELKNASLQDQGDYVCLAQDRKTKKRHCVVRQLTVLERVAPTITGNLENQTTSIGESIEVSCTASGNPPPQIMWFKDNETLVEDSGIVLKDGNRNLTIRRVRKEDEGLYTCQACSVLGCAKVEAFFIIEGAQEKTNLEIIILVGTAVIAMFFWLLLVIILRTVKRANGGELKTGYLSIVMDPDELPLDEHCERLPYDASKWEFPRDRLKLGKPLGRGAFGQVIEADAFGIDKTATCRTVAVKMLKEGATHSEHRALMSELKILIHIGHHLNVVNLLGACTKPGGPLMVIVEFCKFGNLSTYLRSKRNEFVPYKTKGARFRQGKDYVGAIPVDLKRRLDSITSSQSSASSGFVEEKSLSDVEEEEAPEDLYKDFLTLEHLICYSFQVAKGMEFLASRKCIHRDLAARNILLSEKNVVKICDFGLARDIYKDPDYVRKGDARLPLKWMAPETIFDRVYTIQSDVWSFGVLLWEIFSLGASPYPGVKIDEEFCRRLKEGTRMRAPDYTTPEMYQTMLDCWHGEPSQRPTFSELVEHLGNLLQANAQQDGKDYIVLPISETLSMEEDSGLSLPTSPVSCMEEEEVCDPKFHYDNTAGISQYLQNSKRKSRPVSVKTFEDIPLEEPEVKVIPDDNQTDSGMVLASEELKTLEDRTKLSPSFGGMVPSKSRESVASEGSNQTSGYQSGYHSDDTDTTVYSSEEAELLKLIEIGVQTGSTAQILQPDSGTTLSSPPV
Sequence of CSNK1G1 (human) (Q9HCP0 whole entry, looked up): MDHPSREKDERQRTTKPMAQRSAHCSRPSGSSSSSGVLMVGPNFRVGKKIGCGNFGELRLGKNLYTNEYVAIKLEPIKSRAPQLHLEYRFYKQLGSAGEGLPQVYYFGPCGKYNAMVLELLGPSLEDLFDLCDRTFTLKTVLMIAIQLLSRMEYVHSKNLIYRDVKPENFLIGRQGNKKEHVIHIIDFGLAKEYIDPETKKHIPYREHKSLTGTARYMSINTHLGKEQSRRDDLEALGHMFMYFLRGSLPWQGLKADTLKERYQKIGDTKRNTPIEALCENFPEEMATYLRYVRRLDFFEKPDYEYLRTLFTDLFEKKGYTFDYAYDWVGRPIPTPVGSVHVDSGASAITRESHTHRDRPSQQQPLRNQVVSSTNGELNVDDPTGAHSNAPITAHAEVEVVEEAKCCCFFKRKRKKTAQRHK

COc1cc(N2CCN(C)CC2)ccc1Nc1nc(N)c(C(=O)c2c(Cl)cccc2Cl)s1 was tested, and the kinase still bound, per cent of control (SIK2 (human)) was 100%, the kinase still bound, per cent of control (KDR (human)) was 97% and the kinase still bound, per cent of control [1] was 80%. It also gave a kinase still bound, per cent of control (FGFR1 (human)) of 94%, a kinase still bound, per cent of control (CSNK1G1 (human)) of 100% and a kinase still bound, per cent of control (PIK3CB (human)) of 100%. It also gave a kinase still bound, per cent of control (PLK2 (human)) of 91%, a kinase still bound, per cent of control [2] of 88% and a kinase still bound, per cent of control (NIM1 (human)) of 80%. It also gave a kinase still bound, per cent of control (RPS6KB1 (human)) of 89%, a kinase still bound, per cent of control (TIE1 (human)) of 100% and a kinase still bound, per cent of control (ACVRL1 (human)) of 84%. It also gave a kinase still bound, per cent of control (GSK3A (human)) of 67%, a kinase still bound, per cent of control (EPHA5 (human)) of 100% and a kinase still bound, per cent of control (PRKD1 (human)) of 44%. It also gave a kinase still bound, per cent of control [3] of 100%, a kinase still bound, per cent of control (RPS6KA1 KD2 (human)) of 58% and a kinase still bound, per cent of control (CDKL1 (human)) of 88%. It also gave a kinase still bound, per cent of control (AXL (human)) of 100%, a kinase still bound, per cent of control (MAP2K5 (human)) of 100% and a kinase still bound, per cent of control (MINK1 (human)) of 61%. For the same compound, the kinase still bound, per cent of control [4] was 96%, the kinase still bound, per cent of control (PKN1 (human)) was 100% and the kinase still bound, per cent of control (PIP4K2B (human)) was 100%. For the same compound, the kinase still bound, per cent of control (LYN (human)) was 100%, the kinase still bound, per cent of control (ALK (human)) was 0.35% and the kinase still bound, per cent of control (CDK14 (human)) was 91%. The kinase still bound, per cent of control (PLK4 (human)) was 100%, the kinase still bound, per cent of control (FLT1 (human)) was 100% and the kinase still bound, per cent of control [5] was 100%. For the same compound, the kinase still bound, per cent of control (TNK2 (human)) was 97%, the kinase still bound, per cent of control (DAPK2 (human)) was 86% and the kinase still bound, per cent of control (PRKCH (human)) was 93%. The kinase still bound, per cent of control (TNK1 (human)) was 100%, the kinase still bound, per cent of control (MAP3K11 (human)) was 96% and the kinase still bound, per cent of control (PRKX (human)) was 93%. The kinase still bound, per cent of control (CSNK2A2 (human)) was 88%, the kinase still bound, per cent of control (CDK17 (human)) was 42% and the kinase still bound, per cent of control (MYO3A (human)) was 85%. The kinase still bound, per cent of control (CDKL5 (human)) was 100%.
In the case of N#Cc1c(NC(=O)c2cccc3ccccc23)sc2c1CCCC2, the kinase still bound, per cent of control (SIK2 (human)) is reported as 78%, the kinase still bound, per cent of control (KDR (human)) is reported as 96% and the kinase still bound, per cent of control [1] is reported as 100%. For the same compound, the kinase still bound, per cent of control (FGFR1 (human)) was 99%, the kinase still bound, per cent of control (CSNK1G1 (human)) was 50% and the kinase still bound, per cent of control (PIK3CB (human)) was 100%. It also gave a kinase still bound, per cent of control (PLK2 (human)) of 100%, a kinase still bound, per cent of control (NIM1 (human)) of 100% and a kinase still bound, per cent of control (RPS6KB1 (human)) of 90%. For the same compound, the kinase still bound, per cent of control (TIE1 (human)) was 95%, the kinase still bound, per cent of control (ACVRL1 (human)) was 100% and the kinase still bound, per cent of control (GSK3A (human)) was 72%. It also gave a kinase still bound, per cent of control (EPHA5 (human)) of 89%, a kinase still bound, per cent of control (PRKD1 (human)) of 100% and a kinase still bound, per cent of control [3] of 90%. It also gave a kinase still bound, per cent of control (RPS6KA1 KD2 (human)) of 78%, a kinase still bound, per cent of control (CDKL1 (human)) of 73% and a kinase still bound, per cent of control (AXL (human)) of 88%. For the same compound, the kinase still bound, per cent of control (MAP2K5 (human)) was 100%, the kinase still bound, per cent of control (MINK1 (human)) was 95% and the kinase still bound, per cent of control [4] was 98%. The kinase still bound, per cent of control (PKN1 (human)) was 94%, the kinase still bound, per cent of control (PIP4K2B (human)) was 100% and the kinase still bound, per cent of control (LYN (human)) was 78%. For the same compound, the kinase still bound, per cent of control (ALK (human)) was 100%, the kinase still bound, per cent of control (CDK14 (human)) was 98% and the kinase still bound, per cent of control (PLK4 (human)) was 82%. The kinase still bound, per cent of control (FLT1 (human)) was 87%, the kinase still bound, per cent of control [5] was 82% and the kinase still bound, per cent of control (TNK2 (human)) was 77%. The kinase still bound, per cent of control (DAPK2 (human)) was 91%, the kinase still bound, per cent of control (PRKCH (human)) was 87% and the kinase still bound, per cent of control (TNK1 (human)) was 74%. For the same compound, the kinase still bound, per cent of control (MAP3K11 (human)) was 98%, the kinase still bound, per cent of control (PRKX (human)) was 100% and the kinase still bound, per cent of control (CSNK2A2 (human)) was 94%. The kinase still bound, per cent of control (CDK17 (human)) was 93%, the kinase still bound, per cent of control (MYO3A (human)) was 42% and the kinase still bound, per cent of control (CDKL5 (human)) was 70%.
O=C(NOC[C@H](O)CO)c1ccc(F)c(F)c1Nc1ccc(I)cc1F showed a kinase still bound, per cent of control (SIK2 (human)) of 92%, a kinase still bound, per cent of control (KDR (human)) of 84% and a kinase still bound, per cent of control [1] of 100%. The kinase still bound, per cent of control (FGFR1 (human)) was 100%, the kinase still bound, per cent of control (CSNK1G1 (human)) was 61% and the kinase still bound, per cent of control (PIK3CB (human)) was 100%. For the same compound, the kinase still bound, per cent of control (PLK2 (human)) was 100%, the kinase still bound, per cent of control (NIM1 (human)) was 100% and the kinase still bound, per cent of control (RPS6KB1 (human)) was 100%. It also gave a kinase still bound, per cent of control (TIE1 (human)) of 54%, a kinase still bound, per cent of control (ACVRL1 (human)) of 100% and a kinase still bound, per cent of control (GSK3A (human)) of 90%. For the same compound, the kinase still bound, per cent of control (EPHA5 (human)) was 96%, the kinase still bound, per cent of control (PRKD1 (human)) was 100% and the kinase still bound, per cent of control [3] was 100%. The kinase still bound, per cent of control (RPS6KA1 KD2 (human)) was 84%, the kinase still bound, per cent of control (CDKL1 (human)) was 78% and the kinase still bound, per cent of control (AXL (human)) was 83%. The kinase still bound, per cent of control (MAP2K5 (human)) was 86%, the kinase still bound, per cent of control (MINK1 (human)) was 94% and the kinase still bound, per cent of control [4] was 33%. The kinase still bound, per cent of control (PKN1 (human)) was 100%, the kinase still bound, per cent of control (PIP4K2B (human)) was 100% and the kinase still bound, per cent of control (LYN (human)) was 72%. The kinase still bound, per cent of control (ALK (human)) was 100%, the kinase still bound, per cent of control (CDK14 (human)) was 100% and the kinase still bound, per cent of control (PLK4 (human)) was 86%. For the same compound, the kinase still bound, per cent of control (FLT1 (human)) was 94%, the kinase still bound, per cent of control [5] was 84% and the kinase still bound, per cent of control (TNK2 (human)) was 72%. The kinase still bound, per cent of control (DAPK2 (human)) was 100%, the kinase still bound, per cent of control (PRKCH (human)) was 100% and the kinase still bound, per cent of control (TNK1 (human)) was 68%. For the same compound, the kinase still bound, per cent of control (MAP3K11 (human)) was 100%, the kinase still bound, per cent of control (PRKX (human)) was 100% and the kinase still bound, per cent of control (CSNK2A2 (human)) was 100%. It also gave a kinase still bound, per cent of control (CDK17 (human)) of 95%, a kinase still bound, per cent of control (MYO3A (human)) of 47% and a kinase still bound, per cent of control (CDKL5 (human)) of 67%.
